Results from US8785457B2 (Cellzome Limited, priority 2009, dated 2014).
Where two headings read alike, the source gives them in different places.

Assays:
PI3K delta (PI3 Kd) = biological target: T1, PI3K delta (PI3 Kd) (Homo sapiens, UniProt O00329); test: kinobeads assay, PI3K delta; type: binding; conditions: kinobeads assay, read-out: Inhibition values (IC50) PI3Kd
T1 construct: endogenous in cells; host or cells: Jurkat, clone E6-1 (ATCC TIB-152) cell lysate
Procedure, shortened: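 Competitive binding in Jurkat cell lysate (5 mg/mL protein) against beads carrying an immobilized phenylmorpholin-chromen ligand, in DP buffer pH 7.4 with NP40, DTT and NaF. Bead-bound kinases were eluted and quantified by antibody dot blot with infrared detection, and IC50 was taken from dose-response curves of a 1:3 dilution series.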

[1] = system: Akt serine-473 phosphorylation; test: In vitro Phospho-Akt cellular assay (pAkt S473) in HEK293T/17 cells; type: cell-based; conditions: Homo sapiens, 2 hours
Source text: Activation of mTOR signaling results in phosphorylation of several downstream targets. In cells, mTOR exists in two different protein complexes. The mTOR Complex-1 (mTORC1) phosphorylates and activates S6 Kinase 1 (S6K1) and S6 Kinase 2 (S6K2) (also known as p70S6K) which then phosphorylate S6 Ribosomal Protein (S6RP) (also known as RPS6)3. S6RP is phosphorylated on serine 235, serine 236, serine 240 and serine 244 by both pS6K1 and pS6K2. The mTOR Complex-2 (mTORC2) phosphorylates AKT on serine 473 which activates the AKT signaling pathway.
The assay measures a test compound's inhibition of S6RP serine-240/244 phosphorylation and inhibition of Akt serine-473 phosphorylation in human embryonic kidney derived HEK293T/17 cells (ATCC CRL-11268).
The HEK293T/17 cell line is maintained in DMEM media (Invitrogen catalogue number 41965-039) supplemented with 10% FCS at 37° C. in a 5% CO2 humidified incubator.
Cells are seeded in 96-well plates at 40,000 cells/well (pS6RP S240/244 assay) or 80,000 cells/well (pAkt S473 assay) in 90 μl growth media (DMEM, 2% FCS). Plates are incubated for 1 hour in a humidified incubator to allow the cells to adhere. Cells are treated with 8 concentrations of test compounds or DMSO alone for controls (final DMSO concentration 0.1%) and incubated at 37° C. for 2 hours. Then 20 μl of 5× concentrated lysis buffer (750 mM NaCl, 100 mM Tris pH7.4, 5 mM ADTA, 5 mM EGTA, 5% Triton X-100) is added, plates are sealed and incubated for 15 minutes at 4° C. with gentle shaking. After cell lysis, 25 μl cell lysate is transferred to a MesoScale plate coated with an antibody to pS6RP Ser240/244 (MesoScale Discovery K150DGD-3) or an antibody to pAkt Ser 473 (MesoScale Discovery K151DGD-3). Plates have been blocked before by incubation with 150 μl MesoScale Discovery Blocking Solution-A for 1 hour at room temperature followed by washing with 150 μl 1× Tris wash buffer per well. After the transfer of the cell lysate to the MSD plate, the pS6RP (or pAkt) protein is captured on the coated antibody by incubation at room temperature for 1 hour with gentle shaking. After the capture step the plate is washed three times with 150 μl of 1× Tris wash buffer per well. Then 25 μl detection antibody conjugated with a Sulfo-Tag is added and incubated for 1 hour at room temperature with gentle shaking. Subsequently the antibody solution is removed and the plate is washed 3 times with 150 μl×Tris wash buffer per well and 150 μl Read buffer is added. The plates are analysed on a MSD 2400 Plate Reader (MesoScale Discovery). Data analysis is performed using nonlinear regression for a sigmoidal dose-response with a variable slope.

T1 sequence (O00329 whole entry): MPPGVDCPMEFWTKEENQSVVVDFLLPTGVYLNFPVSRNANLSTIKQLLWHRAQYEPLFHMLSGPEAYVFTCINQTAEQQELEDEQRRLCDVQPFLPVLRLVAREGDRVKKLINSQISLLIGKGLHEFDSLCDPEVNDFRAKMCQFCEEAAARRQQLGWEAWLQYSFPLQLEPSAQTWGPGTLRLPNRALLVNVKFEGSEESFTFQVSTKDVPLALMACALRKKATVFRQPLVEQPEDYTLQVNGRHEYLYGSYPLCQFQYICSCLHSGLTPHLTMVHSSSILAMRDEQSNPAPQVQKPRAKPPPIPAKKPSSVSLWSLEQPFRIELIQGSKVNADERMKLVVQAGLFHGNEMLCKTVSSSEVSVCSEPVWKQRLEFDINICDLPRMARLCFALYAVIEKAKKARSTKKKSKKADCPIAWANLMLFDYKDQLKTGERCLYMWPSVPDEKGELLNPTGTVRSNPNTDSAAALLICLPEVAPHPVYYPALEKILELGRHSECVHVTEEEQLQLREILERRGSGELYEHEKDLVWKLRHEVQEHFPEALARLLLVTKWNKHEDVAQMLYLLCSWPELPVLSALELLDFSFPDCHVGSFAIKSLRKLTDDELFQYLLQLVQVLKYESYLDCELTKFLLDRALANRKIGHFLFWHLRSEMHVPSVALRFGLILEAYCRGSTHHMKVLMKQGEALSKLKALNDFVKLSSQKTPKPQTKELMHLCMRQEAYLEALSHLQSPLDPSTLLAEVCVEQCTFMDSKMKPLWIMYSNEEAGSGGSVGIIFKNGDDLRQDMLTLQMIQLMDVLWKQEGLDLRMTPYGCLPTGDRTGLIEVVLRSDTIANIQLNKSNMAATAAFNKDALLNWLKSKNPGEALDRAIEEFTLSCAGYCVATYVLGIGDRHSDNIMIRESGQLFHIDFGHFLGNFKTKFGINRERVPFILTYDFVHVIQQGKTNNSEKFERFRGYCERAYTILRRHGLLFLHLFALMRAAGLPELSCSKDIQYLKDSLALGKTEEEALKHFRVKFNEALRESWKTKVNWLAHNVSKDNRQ
T1 sequence (P27986 whole entry partner): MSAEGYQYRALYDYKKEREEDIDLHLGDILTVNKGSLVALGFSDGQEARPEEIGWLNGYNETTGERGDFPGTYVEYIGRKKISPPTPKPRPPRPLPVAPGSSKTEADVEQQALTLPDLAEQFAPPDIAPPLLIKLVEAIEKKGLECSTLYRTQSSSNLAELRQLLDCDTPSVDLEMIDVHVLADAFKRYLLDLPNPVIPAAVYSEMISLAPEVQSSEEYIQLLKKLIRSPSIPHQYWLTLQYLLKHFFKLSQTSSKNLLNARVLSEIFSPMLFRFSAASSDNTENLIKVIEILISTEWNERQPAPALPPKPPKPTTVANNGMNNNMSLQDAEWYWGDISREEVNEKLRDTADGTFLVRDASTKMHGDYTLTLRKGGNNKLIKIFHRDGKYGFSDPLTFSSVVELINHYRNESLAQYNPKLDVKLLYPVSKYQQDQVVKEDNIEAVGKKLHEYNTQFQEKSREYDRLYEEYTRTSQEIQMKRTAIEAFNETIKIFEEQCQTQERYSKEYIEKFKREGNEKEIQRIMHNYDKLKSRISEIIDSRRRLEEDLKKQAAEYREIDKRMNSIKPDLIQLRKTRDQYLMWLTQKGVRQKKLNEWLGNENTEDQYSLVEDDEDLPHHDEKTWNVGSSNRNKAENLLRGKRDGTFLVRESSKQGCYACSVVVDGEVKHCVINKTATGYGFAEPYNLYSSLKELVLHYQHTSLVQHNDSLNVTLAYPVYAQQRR

CCNC(=O)Nc1ccc(-c2nc3c(c(N4CCOC[C@@H]4C)n2)CN(C(=O)C(C)(C)C)C3)cc1 [Example 22, (S)-1-ethyl-3-(4-(4-(3-methylmorpholino)-6-pivaloyl-6,7-dihydro-5H-pyrrolo[3,4-d]pyrimidin-2-yl)phenyl)urea]
IC50 (PI3K delta (PI3 Kd); Table 4): > 10 µM
IC50 (PI3K delta (PI3 Kd); Table 6): > 10 µM
IC50 [1]: 0.029 µM

CCNC(=O)Nc1ccc(-c2nc3c(c(N4CCOC[C@@H]4C)n2)CCN(C(=O)C2CC2)C3)cc1 [Example 56, (S)-1-(4-(7-(cyclopropanecarbonyl)-4-(3-methylmorpholino)-5,6,7,8-tetrahydropyrido[3,4-d]pyrimidin-2-yl)phenyl)-3-ethylurea]
IC50 (PI3K delta (PI3 Kd); Table 4): > 10 µM
IC50 (PI3K delta (PI3 Kd); Table 6): > 10 µM
IC50 [1]: 0.019 µM
